Measurements: patent US20170360991A1, “DRUG COMPOSITION AND COATING” (W. L. GORE & ASSOCIATES, INC., priority 2015, published 2017)
Where a name gives a salt, the structure may show the parent alone.

Experiments:
[1] = Ethylene oxide stability of cast paclitaxel-excipient films; format: physicochemical; settings: mean of N = 3
Method: Approximately 30 mg of excipient was weighed into a 7 mL glass vial and 6 mL of 75/25 v/v acetone/water was added. A small stirrer bar was added to each vial and all samples were stirred overnight at room temperature to ensure full dissolution. Next, a stock solution of paclitaxel in the casting solvent was made at 5 mg/mL. A specific volume of paclitaxel stock and excipient stock was added to a new vial to achieve the target paclitaxel/excipient weight fraction listed in Table 6. The vials were then mixed and aliquoted to N=6 of the 20 mL vials (0.5 mL each). A paclitaxel-only control was also added to N=6 vials (0.25 mL each). All vials were left in a fume hood overnight to evaporate the solvents. After drying, the samples were capped with cellulose membranes cut to septa size to allow ethylene oxide and moisture permeability. All samples were packaged in breathable polyethylene pouches. N=3 of each paclitaxel/excipient mixture were kept as non-sterilized controls, and the remainder (N=3) were sent for ethylene oxide sterilization (see Test Method D). Non-sterilized controls were stored at room temperature prior to analysis. Paclitaxel content analysis was performed as described in the Evaluation Methods section. Percent paclitaxel recovery was calculated by normalizing to either theoretical initial loading or pre-sterilized samples.

[2] = acetone, ethanol and aqueous mixtures thereof
Excerpt: As discussed in further detail below, coatings of the invention can be prepared by pipetting a solution containing therapeutic agent and excipient onto the device to be coated. […] Thus, in one embodiment the organic additive is not thiamine-HCl.

[3] = Early experiments on stability of organic additive in solution; format: physicochemical
Excerpt: Thus, vanillin is not suitable as an organic additive for the present invention.

[4] = Ethylene oxide sterilization instability of paclitaxel-niacinamide formulations; settings: additive formulated with paclitaxel as solid coating

CC(=O)O[C@H]1C(=O)[C@@]2(C)[C@H]([C@H](OC(=O)c3ccccc3)[C@]3(O)C[C@H](OC(=O)[C@H](O)[C@@H](NC(=O)c4ccccc4)c4ccccc4)C(C)=C1C3(C)C)[C@]1(OC(C)=O)CO[C@@H]1C[C@@H]2O [PTX only, paclitaxel]
% PTX recovery, pre vs. post ([1]; cast formulations post ethylene oxide sterilization, normalized to pre-sterilized samples): 101.7% | % PTX recovery, theoretical vs. pre ([1]; cast formulations pre-sterilization, normalized to theoretical loading): 98.2%

Cc1ncc(C[n+]2csc(CCO)c2C)c(N)n1 [thiamine-HCl]
solubility [2]: poor solubility

COc1cc(C=O)ccc1O [vanillin]
stability in solution [3]: easily degraded in solution

O=C([O-])c1ccccc1O.[Na+] [sodium salicylate]
paclitaxel degradation on ethylene oxide sterilization [4]: cause degradation of the paclitaxel
